According to patent US20260258084A1, “New Peptides as Selective IL-23 Receptor Antagonists” (Sanofi, priority 2022, published 2026):
Converted amounts (≈) assume the structure as drawn. Where two headings read alike, the source gives them in different places. Starred links: 1 amine or outer side, 2 acyl side, 3 side chain; linkers in the order of their positions; H or OH if unused. Positions of bridges follow the written chain, without caps; N, C: chain ends. Non-standard residues stand in square brackets, D forms with d. Residues, ends and D or L forms follow the SMILES beside them. X3 = CN(CCCCC(=O)N[C@@H](CS[*:2])C(=O)[*:1])[*:3]; 2Nal = N[C@@H](Cc1ccc2ccccc2c1)C(=O)O; AEF = NCCOc1ccc(C[C@H](N)C(=O)O)cc1; αMeL = CC(C)C[C@](C)(N)C(=O)O; Thp = NC1(C(=O)O)CCOCC1

Assay: Solubility testing of peptides at different pH
Type: physicochemical
Conditions: target concentration 1 mg/ml, 2 hours agitation
Method in brief: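 Solid obtained by drying down DMSO stock was taken up at 1 mg/mL in 50 mM HCl pH 1.2 or 50 mM phosphate pH 6.5, 7.4 or 9.0, agitated gently for 2 h, then filtered (0.45 μm). Solubility by UPLC-UV peak area against a DMSO reference standard curve, corrected for extinction coefficients.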

[1] = 50 mM HCl buffer, 50 mM HCl pH 1.2, read-out: Solubility Buffer pH 1.2
[2] = 50 mM phosphate buffer pH 6.5, read-out: Solubility Buffer pH 6.5
[3] = 50 mM phosphate buffer pH 7.4, read-out: Solubility Buffer pH 7.4
[4] = 50 mM phosphate buffer pH 9.0, read-out: Solubility Buffer pH 9.0

In the case of `CC(=O)N[C@H]1CCCCNC(=O)[C@@H]2CSSC[C@H](NC(=O)[C@H](CCC(N)=O)NC(=O)[C@H](Cc3c[nH]c4ccccc34)NC1=O)C(=O)N[C@@H](Cc1ccc(OCCN)cc1)C(=O)N[C@@H](Cc1ccc3ccccc3c1)C(=O)NC1(CCOCC1)C(=O)N[C@H](C(=O)N[C@@H](CC(N)=O)C(=O)NCC(N)=O)CCC(=O)N(C)CCCCC(=O)N2` [compound 16] (Ac-KWQC[AEF][2Nal][Thp]ENG-NH2; linker 1-4-8 via X3), the solubility at 2 h [1] is reported as ≥ 1070 µg/mL, the solubility at 2 h [2] is reported as ≥ 950 µg/mL and the solubility at 2 h [3] is reported as ≥ 1000 µg/mL. It also gave a solubility at 2 h [4] of 810 µg/mL (≈ 496 µM).
In the case of `CC(=O)N[C@H]1CCCCNC(=O)[C@@H]2CSSC[C@H](NC(=O)[C@H](CCC(N)=O)NC(=O)[C@H](Cc3c[nH]c4ccccc34)NC1=O)C(=O)N[C@@H](Cc1ccc(OCCN)cc1)C(=O)N[C@@H](Cc1ccc3ccccc3c1)C(=O)N[C@@](C)(CC(C)C)C(=O)N[C@H](C(=O)N[C@@H](CC(N)=O)C(=O)N[C@@H](CC(N)=O)C(N)=O)CCC(=O)N(C)CCCCC(=O)N2` [compound 14] (Ac-KWQC[AEF][2Nal][αMeL]ENN-NH2; linker 1-4-8 via X3), the solubility at 2 h [1] is reported as 50 µg/mL (≈ 29.6 µM), the solubility at 2 h [2] is reported as 30 µg/mL (≈ 17.8 µM) and the solubility at 2 h [3] is reported as 20 µg/mL (≈ 11.8 µM). For the same compound, the solubility at 2 h [4] was < 10 µg/mL.
